The record followed here is US8871934B2, “Fluorene compound and pharmaceutical use thereof” (Japan Tobacco Inc., priority 2008, dated 2014).

Read-outs that look alike come from different tables or passages of the source.

The assay concerns the target human PDHK2 (hPDHK2) (Homo sapiens (Human), UniProt Q15119). The experiment in a line: Inhibitory action of PDHK activity in vitro (kinase reaction, residual PDH activity measured). It counts as biochemical. The method, then:
In the case of human PDHK2 (hPDHK2, Genbank Accession No. NM_002611), modified hPDHK2 cDNA wherein FLAG-Tag sequence is added to the N terminal by a polymerase linkage reaction was prepared based on hPDHK2 cDNA clone (pReceiver-M01/PDK2-GeneCopoeia), and cloned into a vector (pET17b-Novagen). The recombinant construct was transformed into Escherichia coli (DH5α-TOYOBO). The recombinant clones were identified, plasmid DNA was isolated and subjected to the DNA sequence analysis. One clone which had the expected nucleic acid sequence was selected for expression work.
During the assay, the hPDHK2 enzyme concentration was set to the minimal concentration at which PDH is inhibited the most.
0.05 U/mL PDH (porcine heart PDH complex, Sigma P7032) and 1.6 μg/mL hPDHK2 were mixed in a buffer (50 mmol/L 3-morpholinopropanesulfonic acid (pH 7.0), 20 mmol/L dipotassium hydrogen phosphate, 60 mmol/L potassium chloride, 2 mmol/L magnesium chloride, 0.4 mmol/L EDTA, and 0.2% Pluronic F-68, 2 mmol/L dithiothreitol), the mixture was incubated at 4° C. overnight to give PDH/hPDHK2 complex. The test compound was diluted with dimethyl sulfoxide (DMSO). PDH/hPDHK2 complex (20 μL), test compound (1.5 μL) and 3.53 μmol/L ATP (diluted with buffer, 8.5 μL) were added to a half area 96 well UV-transparent microplate (Corning 3679), and PDHK reaction was performed at room temperature for 45 min. Instead of the test compound, DMSO (1.5 μL) was added to a control well. DMSO (1.5 μL) was added instead of the test compound to a blank well for the measurement of the maximum rate of PDH reaction, and hPDHK2 was not added. Than, 10 μL of substrates (5 mmol/L sodium pyruvate, 5 mmol/L Coenzyme A, 12 mmol/L NAD, and 5 mmol/L thiamine pyrophosphate, diluted with buffer) was added. The mixture was incubated at room temperature for 90 min, and the residual PDH activity was measured. The absorbance at 340 nm before and after PDH reaction was measured on a microplate reader to detect NADH produced by the PDH reaction. The PDHK inhibitory rate (%) of the test compound was calculated from the formula [{(PDH activity of test compound—PDH activity of control)/PDH activity of blank—PDH activity of control)}×100]. The IC50 value was calculated from the concentrations of the test compound at two points enclosing 50% inhibition of the PDHK activity.

Where [1] appears, read: PDHK inhibitory activity, class symbol of IC50.
[2] abbreviates: read-out: PDHK inhibitory activity IC50.
[3] abbreviates: PDHK inhibitory activity IC50 (μmol/L).
The mark [4] stands for this setting: PDHK inhibitory activity (class symbol).

A word on the IC50: it is the concentration at which inhibition is half-maximal.

In the case of `CN(c1ccccc1)c1ccc2c(c1)C(O)(C(F)(F)F)c1ccccc1-2` (stereo not drawn) [compound 186], the IC50 runs as follows: under setting [1], more than 1000 nM; under setting [2], 5910 nM.

As to `O=C(O)CCCn1cc(-c2cc(F)cc3c2-c2ccccc2[C@]3(O)C(F)(F)F)cn1` (stereo in doubt) [compound 537], the IC50 was 35 nM under setting [3] and less than 100 nM under setting [1].

For `CN(C)C(=O)CCOc1ccc2c(c1)C(O)(C(F)(F)F)c1ccccc1-2` (stereo not drawn) [compound 303], the IC50 is, setting by setting: under setting [1], 100 to 1000 nM; under setting [2], 755 nM.

For `NCCOc1ccc2c(c1)C(O)(C(F)(F)F)c1ccccc1-2` (stereo not drawn) [compound 320], the half-inhibitory concentration (IC50) under setting [1] is more than 1000 nM and the IC50 under setting [2] is 8760 nM.

As to `Cc1cc(C(=O)N2CC(CO)C2)cc2c1-c1ccccc1C2(O)C(F)(F)F` (stereo not drawn) [compound 351], the half-maximal inhibitory concentration (IC50) is 100 to 1000 nM under setting [1] and 168 nM under setting [2].

As for `CN(C)C(=O)CCCOc1cc(-c2cnn(C)c2)c2c(c1)C(O)(C(F)(F)F)c1ccccc1-2` (stereo not drawn) [compound 427], the IC50 under setting [1] was less than 100 nM and the half-maximal inhibitory concentration (IC50) under setting [2] was 20 nM.

With `O=C(O)c1ccc(-c2ccc3c(c2)C(O)(C(F)(F)F)c2ccccc2-3)cc1Cl` (stereo not drawn) [compound 238], the IC50 under setting [1] is 100 to 1000 nM and the IC50 under setting [2] came out at 252 nM.

Take `CNC(=O)Cn1cc(-c2cc(C)cc3c2-c2ccccc2[C@]3(O)C(F)(F)F)cn1` (stereo in doubt) [compound 533]: the IC50 by setting is: under setting [3], 15 nM; under setting [1], less than 100 nM.

Regarding `O=C(c1cc(Cl)c2c(c1)C(O)(C(F)(F)F)c1ccccc1-2)N1CCC1` (stereo not drawn) [compound 94], the IC50 by setting is: under setting [1], less than 100 nM; under setting [2], 49 nM.

In the case of `Cn1cc(-c2cc(OCC(CO)CO)cc3c2-c2ccccc2C3(O)C(F)(F)F)cn1` (stereo not drawn) [compound 622], the IC50 reads like this: under setting [4], less than 100 nM; under setting [2], 33 nM.

Turning to `CNC(=O)Cn1cc(-c2cccc3c2-c2ccccc2C3(O)C(F)(F)F)cn1` (stereo not drawn) [compound 494], the 50% inhibitory concentration (IC50) was less than 100 nM under setting [1] and 44 nM under setting [2].

On to `OC1(C(F)(F)F)c2ccccc2-c2ccc(-c3ccncc3)cc21` (stereo not drawn) [compound 103], for which the IC50 is 100 to 1000 nM under setting [1] and 151 nM under setting [2].

For the molecule `OCC(CO)(CO)n1cc(-c2cccc3c2-c2ccccc2C3(O)C(F)(F)F)cn1` (single isomer, unassigned) [compound 706], the half-maximal inhibitory concentration (IC50) under setting [4] was less than 100 nM and the IC50 under setting [2] stood at 31 nM.

`CC(=O)c1cccc2c1-c1ccccc1C2(O)C(F)(F)F` (stereo not drawn) [compound 68]: the IC50 is 100 to 1000 nM under setting [1] and 624 nM under setting [2].

Turning to `CCOC(=O)c1ccc(-c2cc(Cl)c3c(c2)C(O)(C(F)(F)F)c2ccccc2-3)cc1` (stereo not drawn) [compound 233], the IC50 by setting is: under setting [1], 100 to 1000 nM; under setting [2], 142 nM.

With `OC1(C(F)(F)F)c2ccccc2-c2ccc(-c3cnco3)cc21` (stereo not drawn) [compound 245], the concentration for half-maximal inhibition (IC50) is, setting by setting: under setting [1], 100 to 1000 nM; under setting [2], 190 nM.

Turning to `OCc1cc(Cl)cc2c1-c1ccccc1C2(O)C(F)(F)F` (stereo not drawn) [compound 635], the half-maximal inhibitory concentration (IC50) reads like this: under setting [4], 100 to 1000 nM; under setting [2], 515 nM.

For the molecule `Cn1cc(-c2cc(OCC(O)CO)cc3c2-c2ccccc2C3(O)C(F)(F)F)cn1` (stereo not drawn) [compound 571], the half-inhibitory concentration (IC50) runs as follows: under setting [1], less than 100 nM; under setting [2], 50 nM.

For `OC1(C(F)(F)F)c2ccccc2-c2c(Cl)cc(Cl)cc21` (stereo not drawn) [compound 21], the concentration for half-maximal inhibition (IC50) is 100 to 1000 nM under setting [1] and 302 nM under setting [2].

Consider `Nc1cccc2c1-c1ccccc1C2(O)C(F)(F)F` (stereo not drawn) [compound 20], for which the 50% inhibitory concentration (IC50) is, setting by setting: under setting [1], more than 1000 nM; under setting [2], 3500 nM.

`CNC(=O)COc1cc(Br)c2c(c1)C(O)(C(F)(F)F)c1ccccc1-2` (stereo not drawn) [compound 438]: the IC50 is 100 to 1000 nM under setting [1] and 112 nM under setting [2].

Turning to `Cn1cc(-c2cc(C(=O)N3CCCC3)cc3c2-c2ccccc2C3(O)C(F)(F)F)cn1` (stereo not drawn) [compound 356], the half-maximal inhibitory concentration (IC50) reads like this: under setting [1], less than 100 nM; under setting [2], 53 nM.

For the molecule `CC(C)c1ccc2c(c1)C(O)(C(F)(F)F)c1ccccc1-2` (stereo not drawn) [compound 71], the IC50 is, setting by setting: under setting [1], more than 1000 nM; under setting [2], 10200 nM.

`CCN(C)C(=O)c1ccc2c(c1)C(O)(C(F)(F)F)c1ccccc1-2` (stereo not drawn) [compound 51]: the 50% inhibitory concentration (IC50) was more than 1000 nM under setting [1] and 2590 nM under setting [2].

Regarding `CCNC(=O)Cn1cc(-c2cccc3c2-c2ccccc2C3(O)C(F)(F)F)cn1` (stereo not drawn) [compound 511], the half-maximal inhibitory concentration (IC50) reads like this: under setting [1], less than 100 nM; under setting [2], 56 nM.

With `Cn1cc(-c2cc(C(=O)N3CCC(O)C3)cc3c2-c2ccccc2C3(O)C(F)(F)F)cn1` (stereo not drawn) [compound 376], the IC50 is, setting by setting: under setting [1], less than 100 nM; under setting [2], 85 nM.

With `O=C(O)c1ccc2c(c1)-c1ccccc1C2(O)C(F)(F)F` (stereo not drawn) [compound 41], the IC50 was more than 1000 nM under setting [1] and 68600 nM under setting [2].

In the case of `OC1(C(F)(F)F)c2ccccc2-c2ccc(-c3ccsc3)cc21` (stereo not drawn) [compound 145], the concentration for half-maximal inhibition (IC50) is, setting by setting: under setting [1], more than 1000 nM; under setting [2], 1380 nM.

Turning to `O=C(O)COC1CN(C(=O)c2ccc3c(c2)C(O)(C(F)(F)F)c2ccccc2-3)C1` (stereo not drawn) [compound 107], the IC50 under setting [1] is more than 1000 nM and the IC50 under setting [2] amounted to 2610 nM.

Take `CN(C)C1CCN(C(=O)c2ccc3c(c2)C(O)(C(F)(F)F)c2ccccc2-3)C1` (stereo not drawn) [compound 216]: the half-inhibitory concentration (IC50) is, setting by setting: under setting [1], more than 1000 nM; under setting [2], 2560 nM.

`Cn1cc(-c2cc(CO)cc3c2-c2ccccc2C3(O)C(F)(F)F)cn1` (stereo not drawn) [compound 557]: the half-inhibitory concentration (IC50) reads like this: under setting [1], less than 100 nM; under setting [2], 77 nM.

With `CC(C)Cc1cc(-c2cnn(C(CO)CO)c2)c2c(c1)C(O)(C(F)(F)F)c1ccccc1-2` (stereo not drawn) [compound 648], the IC50 under setting [4] was less than 100 nM and the half-inhibitory concentration (IC50) under setting [2] came to 44 nM.

Turning to `CC1CCN(c2ccc3c(c2)C(O)(C(F)(F)F)c2ccccc2-3)C1` (stereo not drawn) [compound 269], the 50% inhibitory concentration (IC50) is more than 1000 nM under setting [1] and 1340 nM under setting [2].

`COC(=O)COc1cc(Cl)c2c(c1)C(O)(C(F)(F)F)c1ccccc1-2` (stereo not drawn) [compound 480]: the half-maximal inhibitory concentration (IC50) by setting is: under setting [1], 100 to 1000 nM; under setting [2], 553 nM.

For the molecule `NC(=O)CCCOc1ccc2c(c1)C(O)(C(F)(F)F)c1ccccc1-2` (stereo not drawn) [compound 280], the concentration for half-maximal inhibition (IC50) under setting [1] is more than 1000 nM and the IC50 under setting [2] stood at 1510 nM.

As to `CC(C)Cn1cc(-c2cc(CO)c3c(c2)C(O)(C(F)(F)F)c2ccccc2-3)cn1` (stereo not drawn) [compound 649], the IC50 runs as follows: under setting [4], less than 100 nM; under setting [2], 37 nM.

Turning to `O=C(COc1ccc2c(c1)C(O)(C(F)(F)F)c1ccccc1-2)N1CCC(CO)CC1` (stereo not drawn) [compound 397], the IC50 by setting is: under setting [1], 100 to 1000 nM; under setting [2], 424 nM.

With `CC(C)(O)Cn1cc(-c2cc(F)cc3c2-c2ccccc2C3(O)C(F)(F)F)cn1` (single isomer, unassigned) [compound 674], the half-inhibitory concentration (IC50) runs as follows: under setting [4], less than 100 nM; under setting [2], 30 nM.

For `O=C(c1ccc2c(c1)C(O)(C(F)(F)F)c1ccccc1-2)N1CC(CO)C1` (stereo not drawn) [compound 87], the concentration for half-maximal inhibition (IC50) under setting [1] was in the range of 100 to 1000 nM and the half-maximal inhibitory concentration (IC50) under setting [2] was 669 nM.

Consider `O=C(O)Cn1cc(-c2cc(Cl)c3c(c2)C(O)(C(F)(F)F)c2ccccc2-3)cn1` (stereo not drawn) [compound 516], for which the IC50 was 100 to 1000 nM under setting [1] and 110 nM under setting [2].

As to `CC(CO)(CO)n1cc(-c2cccc3c2-c2ccccc2C3(O)C(F)(F)F)cn1` (single isomer, unassigned) [compound 702], the IC50 was less than 100 nM under setting [4] and 30 nM under setting [2].

For `CN(C)C(=O)CCCOc1cc(-c2cncnc2)c2c(c1)C(O)(C(F)(F)F)c1ccccc1-2` (stereo not drawn) [compound 429], the 50% inhibitory concentration (IC50) is, setting by setting: under setting [1], less than 100 nM; under setting [2], 19 nM.
